molecular target: recombinant Mcl-1 (residues 172-327) (Homo sapiens (Human), UniProt Q07820); assay: Fluorescence polarization anisotropy competition assay (FITC-Bak or FITC-Bim BH3 peptide) with Mcl-1; assay type: binding; conditions: not given
Sequence (Q07820 172-327): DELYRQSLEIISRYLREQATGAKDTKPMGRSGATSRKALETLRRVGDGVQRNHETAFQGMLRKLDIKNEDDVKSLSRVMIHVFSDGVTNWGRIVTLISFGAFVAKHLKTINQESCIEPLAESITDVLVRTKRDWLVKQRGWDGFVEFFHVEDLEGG

| SMILES | Ki [nM] |
| --- | --- |
| Cc1cc(OCCCc2c(C(=O)NCc3ccc(C(=O)O)o3)[nH]c3ccccc23)cc(C)c1Cl [I-57, 5-((3-(3-(4-chloro-3,5-dimethylphenoxy)propyl)-1H-indole-2-carboxamido)methyl)furan-2-carboxylic acid] | 51 to 100 |

same assay, conditions: Table 2; Ki bins given in nM; FITC-Bak or FITC-Bim peptide competition; Ki converted from IC50; read-out: Ki for Inhibition of Mcl-1

| SMILES | Ki [nM] |
| --- | --- |
| Cc1nn(C)c(C)c1-c1cccc2c(CCCOc3cccc4ccccc34)c(C(=O)Nc3cncc(C(=O)O)c3)[nH]c12 [I-194, 5-(3-(3-(naphthalen-1-yloxy)propyl)-7-(1,3,5-trimethyl-1H-pyrazol-4-yl)-1H-indole-2-carboxamido)nicotinic acid] | 51 to 100 |
| Cc1cc(OCCCc2c(C(=O)N3CCC(CC(=O)O)CC3)[nH]c3c(-c4c(C)nn(C)c4C)cccc23)cc(C)c1Cl [I-204, 2-(1-(3-(3-(4-chloro-3,5-dimethylphenoxy)propyl)-7-(1,3,5-trimethyl-1H-pyrazol-4-yl)-1H-indole-2-carbonyl)piperidin-4-yl)acetic acid] | 51 to 100 |
| Cc1cc(OCCCc2c(C(=O)NCC(=O)NCC(=O)O)[nH]c3c(-c4c(C)nn(C)c4C)cccc23)cc(C)c1Cl [I-290, (3-(3-(4-chloro-3,5-dimethylphenoxy)propyl)-7-(1,3,5-trimethyl-1H-pyrazol-4-yl)-1H-indole-2-carbonyl)glycylglycine] | < 50 |
| Cc1cc(OCCCc2c(C(=O)N(C)Cc3cc(C(=O)O)c(C)o3)n(C)c3c(-c4c(C)nn(C)c4C)cccc23)cc(C)c1Cl [I-274, 5-((3-(3-(4-chloro-3,5-dimethylphenoxy)propyl)-N,1-dimethyl-7-(1,3,5-trimethyl-1H-pyrazol-4-yl)-1H-indole-2-carboxamido)methyl)-2-methylfuran-3-carboxylic acid] | 101 to 299 |
| Cc1cc(OCCCc2c(C(=O)NCc3cccc(C(=O)NS(=O)(=O)c4ccccc4C#N)c3)[nH]c3c(-c4c(CN5CCCC5)nn(C)c4C)cccc23)cc(C)c1Cl [I-35, 3-(3-(4-chloro-3,5-dimethylphenoxy)propyl)-N-(3-(((2-cyanophenyl)sulfonyl)carbamoyl)benzyl)-7-(1,5-dimethyl-3-(pyrrolidin-1-ylmethyl)-1H-pyrazol-4-yl)-1H-indole-2-carboxamide] | < 50 |
| Cc1cc(OCCCc2c(C(=O)N(C)c3cccc(C(=O)O)c3)[nH]c3c(-c4c(C)nn(C)c4C)cccc23)cc(C)c1Cl [I-197, 3-(3-(3-(4-chloro-3,5-dimethylphenoxy)propyl)-N-methyl-7-(1,3,5-trimethyl-1H-pyrazol-4-yl)-1H-indole-2-carboxamido)benzoic acid] | < 50 |
| COC(=O)c1cccc(N2CCN(C(=O)c3[nH]c4cc(Cl)ccc4c3CCCOc3cc(C)c(Cl)c(C)c3)CC2)c1 [I-52, methyl 3-(4-(6-chloro-3-(3-(4-chloro-3,5-dimethylphenoxy)propyl)-1H-indole-2-carbonyl)piperazin-1-yl)benzoate] | 501 to 999 |
| Cc1cc(OCCCc2c(C(=O)NCc3cc(Br)cc(C(=O)O)c3)[nH]c3c(-c4c(C)nn(C)c4C)c(Cl)ccc23)cc(C)c1Cl [I-370, 3-bromo-5-((6-chloro-3-(3-(4-chloro-3,5-dimethylphenoxy)propyl)-7-(1,3,5-trimethyl-1H-pyrazol-4-yl)-1H-indole-2-carboxamido)methyl)benzoic acid] | < 50 |

Now from value to compound:

| Ki [nM] | SMILES |
| --- | --- |
| < 50 | Cc1cc(OCCCc2c3n(c4c(-c5c(C)nn(C)c5C)c(Cl)ccc24)CCC(C)NC3=O)cc(C)c1Cl (stereo not shown) [I-114, 8-chloro-1-(3-(4-chloro-3,5-dimethylphenoxy)propyl)-3-methyl-7-(1,3,5-trimethyl-1H-pyrazol-4-yl)-2,3,4,5-tetrahydro-1H-[1,4]diazepino[1,2-a]indol-1-one] |
| < 50 | Cc1cc(OCCCc2c(C(=O)N(C)Cc3ccc(C(=O)O)cc3)n(CCN3CCOCC3)c3c(-c4c(C)nn(C)c4C)c(Cl)ccc23)cc(C)c1Cl [I-374, 4-((6-chloro-3-(3-(4-chloro-3,5-dimethylphenoxy)propyl)-N-methyl-1-(2-morpholinoethyl)-7-(1,3,5-trimethyl-1H-pyrazol-4-yl)-1H-indole-2-carboxamido)methyl)benzoic acid] |
| < 50 | Cc1cc(OCCCc2c3n(c4c(-c5c(C)nn(C)c5C)c(Cl)ccc24)CCC(C)N(Cc2ccc(C(=O)O)cc2)C3=O)cc(C)c1Cl (stereo not shown) [I-127, 4-((8-chloro-11-(3-(4-chloro-3,5-dimethylphenoxy)propyl)-3-methyl-1-oxo-7-(1,3,5-trimethyl-1H-pyrazol-4-yl)-4,5-dihydro-1H-[1,4]diazepino[1,2-a]indol-2(3H)-yl)methyl)benzoic acid] |
| < 50 | Cc1cc(OCCCc2c3n(c4c(-c5c(C)nn(C)c5C)c(Cl)ccc24)C[C@H](C)N(Cc2ccc(C(=O)O)o2)C3=O)cc(C)c1Cl [I-138, (S)-5-((7-chloro-10-(3-(4-chloro-3,5-dimethylphenoxy)propyl)-3-methyl-1-oxo-6-(1,3,5-trimethyl-1H-pyrazol-4-yl)-3,4-dihydropyrazino[1,2-a]indol-2(1H)-yl)methyl)furan-2-carboxylic acid] |
| < 50 | Cc1cc(OCCCc2c3n(c4c(-c5c(C)nn(C)c5C)c(Cl)ccc24)[C@H](C)CN(c2ccc(C(=O)O)cc2)C3=O)cc(C)c1Cl [I-172, (R)-4-(7-chloro-10-(3-(4-chloro-3,5-dimethylphenoxy)propyl)-4-methyl-1-oxo-6-(1,3,5-trimethyl-1H-pyrazol-4-yl)-3,4-dihydropyrazino[1,2-a]indol-2(1H)-yl)benzoic acid] |
| < 50 | Cc1cc(OCCCc2c3n(c4c(-c5c(C)nn(C)c5C)c(Cl)ccc24)CCCN(c2cc(C(=O)O)cc(-c4cccn4C)c2)C3=O)cc(C)c1Cl [I-235, 3-(8-chloro-11-(3-(4-chloro-3,5-dimethylphenoxy)propyl)-1-oxo-7-(1,3,5-trimethyl-1H-pyrazol-4-yl)-4,5-dihydro-1H-[1,4]diazepino[1,2-a]indol-2(3H)-yl)-5-(1-methyl-1H-pyrrol-2-yl)benzoic acid] |
| < 50 | Cc1cc(OCCCc2c3n(c4c(-c5c(C)nn(C)c5C)c(Cl)ccc24)C[C@H](C)N(Cc2ccc(C(=O)O)cc2)C3=O)cc(C)c1Cl [I-139, (S)-4-((7-chloro-10-(3-(4-chloro-3,5-dimethylphenoxy)propyl)-3-methyl-1-oxo-6-(1,3,5-trimethyl-1H-pyrazol-4-yl)-3,4-dihydropyrazino[1,2-a]indol-2(1H)-yl)methyl)benzoic acid] |
| < 50 | Cc1cc(OCCCc2c3n(c4c(-c5c(C)nn(C)c5C)c(Cl)ccc24)C[C@H](C)N(Cc2ccc(C(=O)O)cn2)C3=O)cc(C)c1Cl [I-137, (S)-6-((7-chloro-10-(3-(4-chloro-3,5-dimethylphenoxy)propyl)-3-methyl-1-oxo-6-(1,3,5-trimethyl-1H-pyrazol-4-yl)-3,4-dihydropyrazino[1,2-a]indol-2(1H)-yl)methyl)nicotinic acid] |
| < 50 | Cc1cc(OCCCc2c3n(c4c(-c5c(C)nn(C)c5C)c(Cl)ccc24)CC(C)CN(Cc2ccc(C(=O)O)cn2)C3=O)cc(C)c1Cl (stereo not shown) [I-134, 6-((8-chloro-11-(3-(4-chloro-3,5-dimethylphenoxy)propyl)-4-methyl-1-oxo-7-(1,3,5-trimethyl-1H-pyrazol-4-yl)-4,5-dihydro-1H-[1,4]diazepino[1,2-a]indol-2(3H)-yl)methyl)nicotinic acid] |
| < 50 | Cc1cc(OCCCc2c3n(c4c(-c5c(C)nn(C)c5C)c(Cl)ccc24)CCNC3=O)cc(C)c1Cl [I-117, 7-chloro-10-(3-(4-chloro-3,5-dimethylphenoxy)propyl)-6-(1,3,5-trimethyl-1H-pyrazol-4-yl)-3,4-dihydropyrazino[1,2-a]indol-1(2H)-one] |
| < 50 | Cc1cc(OCCCc2c(C(=O)Nc3ccc(C(=O)O)c(N(C)CCN(C)C)c3)[nH]c3c(-c4c(C)nn(C)c4C)c(Cl)ccc23)cc(C)c1Cl [I-92, 4-(6-chloro-3-(3-(4-chloro-3,5-dimethylphenoxy)propyl)-7-(1,3,5-trimethyl-1H-pyrazol-4-yl)-1H-indole-2-carboxamido)-2-((2-(dimethylamino)ethyl)(methyl)amino)benzoic acid] |
| < 50 | Cc1cc(OCCCc2c3n(c4c(-c5c(C)nn(C)c5C)c(Cl)ccc24)CCCN(c2ccc(C(=O)NS(=O)(=O)C4CC4)cc2)C3=O)cc(C)c1Cl [I-361, 4-(8-chloro-11-(3-(4-chloro-3,5-dimethylphenoxy)propyl)-1-oxo-7-(1,3,5-trimethyl-1H-pyrazol-4-yl)-4,5-dihydro-H-[1,4]diazepino[1,2-a]indol-2(3H)-yl)-N-(cyclopropylsulfonyl)benzamide] |
| < 50 | Cc1cc(OCCCc2c3n(c4c(-c5c(C)nn(C)c5C)c(Cl)ccc24)CCN(c2cncc(C(=O)O)c2)C3=O)cc(C)c1Cl [I-198, 5-(7-chloro-10-(3-(4-chloro-3,5-dimethylphenoxy)propyl)-1-oxo-6-(1,3,5-trimethyl-1H-pyrazol-4-yl)-3,4-dihydropyrazino[1,2-a]indol-2(1H)-yl)nicotinic acid] |

same assay, conditions: Table 2; Ki bins given in μM; FITC-Bak or FITC-Bim peptide competition; Ki converted from IC50; read-out: Ki for Inhibition of Mcl-1

| SMILES | Ki [nM] |
| --- | --- |
| Cc1cc(OCCCc2c(C(=O)NCc3cc(C(=O)NC4Cc5ccccc5C4)cc(NC4Cc5ccccc5C4)n3)[nH]c3c(-c4c(C)nn(C)c4C)cccc23)cc(C)c1Cl [I-278, 3-(3-(4-chloro-3,5-dimethylphenoxy)propyl)-N-((6-((2,3-dihydro-1H-inden-2-yl)amino)-4-((2,3-dihydro-1H-inden-2-yl)carbamoyl)pyridin-2-yl)methyl)-7-(1,3,5-trimethyl-1H-pyrazol-4-yl)-1H-indole-2-carboxamide] | 1000 to 9990 |
| Cc1cc(OCCCc2c(C(=O)NCCc3ccccc3)[nH]c3ccccc23)cc(C)c1Cl [I-42, 3-(3-(4-chloro-3,5-dimethylphenoxy)propyl)-N-phenethyl-1H-indole-2-carboxamide] | 10000 to 50000 |
| COC(=O)[C@H](Cc1ccccc1)NC(=O)CNC(=O)c1[nH]c2c(-c3c(C)nn(C)c3C)cccc2c1CCCOc1cc(C)c(Cl)c(C)c1 [I-288, methyl (3-(3-(4-chloro-3,5-dimethylphenoxy)propyl)-7-(1,3,5-trimethyl-1H-pyrazol-4-yl)-1H-indole-2-carbonyl)glycyl-L-phenylalaninate] | 1000 to 9990 |

From US10533010B2, “Substituted indole Mcl-1 inhibitors” (Vanderbilt University, priority 2014, dated 2020)
